Source: US10246449B2, “1,2,3 triazole-thiazole compounds, process for preparation and use thereof” (Council of Scientific & Industrial Research, priority 2015, dated 2019)

**Q.** For `CCCCc1cn(Cc2csc(-c3ccc(Cl)cc3)n2)nn1` [Compound 2, 4-((4-Butyl-1H-1,2,3-triazol-1-yl)methyl)-2-(4-chlorophenyl)thiazole], which melting point is on record?
**A.** Its melting point is 98 to 99 °C.

**Q.** With `Clc1ccc(-c2nc(Cn3cc(C4CC4)nn3)cs2)cc1` [Compound 3, 2-(4-Chlorophenyl)-4-((4-cyclopropyl-1H-1,2,3-triazol-1-yl)methyl)thiazole] as the compound, how does the melting point read?
**A.** Its melting point is 109 to 111 °C.

**Q.** For `OCc1cn(Cc2csc(-c3ccc(Cl)cc3)n2)nn1` [Compound 4, (1-((2-(4-Chlorophenyl)thiazol-4-yl)methyl)-1H-1,2,3-triazol-4-yl)methanol], which melting point is on record?
**A.** Its melting point is 152 to 154 °C.

**Q.** For `CCCCCc1cn(Cc2csc(-c3ccc(Cl)cc3)n2)nn1` [Compound 5, 2-(4-Chlorophenyl)-4-((4-pentyl-1H-1,2,3-triazol-1-yl)methyl)thiazole], which melting point is on record?
**A.** Its melting point is 88 to 90 °C.

**Q.** Which melting point does the source give for `Clc1ccc(-c2nc(Cn3cc(COC4CCCCO4)nn3)cs2)cc1` (centres unmarked) [Compound 6, 2-(4-Chlorophenyl)-4-((4-(((tetrahydro-2H-pyran-2-yl)oxy)methyl)-1H-1,2,3-triazol-1-yl)methyl)thiazole] here?
**A.** Its melting point is 92 to 94 °C.

**Q.** Which melting point does the source give for `CCOC(=O)c1cn(Cc2csc(-c3ccc(Cl)cc3)n2)nn1` [Compound 7, Ethyl 1-((2-(4-chlorophenyl)thiazol-4-yl)methyl)-1H-1,2,3-triazole-4-carboxylate] here?
**A.** Its melting point is 149 to 151 °C.

**Q.** For `OCCCCc1cn(Cc2csc(-c3ccc(Cl)cc3)n2)nn1` [Compound 8, 4-(1-((2-(4-Chlorophenyl)thiazol-4-yl)methyl)-1H-1,2,3-triazol-4-yl)butan-1-ol], which melting point is on record?
**A.** The melting point was 157 to 159 °C.

**Q.** Which melting point does the source give for `Clc1ccc(-c2nc(Cn3nncc3-c3ccccc3)cs2)cc1` [Compound 9, 2-(4-chlorophenyl)-4-((5-phenyl-1H-1,2,3-triazol-1-yl)methyl)thiazole] here?
**A.** The melting point was 175 to 177 °C.
